The target in this experiment is T1, enolase (Oryctolagus cuniculus, UniProt P25704).
T1 construct: gene ENO3; purified rabbit muscle enolase (Sigma)
As to the kind of experiment: coupled pyruvate kinase/lactate dehydrogenase enzyme assay, NADH absorption at […] nm. Format: biochemical.

Molecules are shown by their SMILES.

T1 sequence (P25704 2-434): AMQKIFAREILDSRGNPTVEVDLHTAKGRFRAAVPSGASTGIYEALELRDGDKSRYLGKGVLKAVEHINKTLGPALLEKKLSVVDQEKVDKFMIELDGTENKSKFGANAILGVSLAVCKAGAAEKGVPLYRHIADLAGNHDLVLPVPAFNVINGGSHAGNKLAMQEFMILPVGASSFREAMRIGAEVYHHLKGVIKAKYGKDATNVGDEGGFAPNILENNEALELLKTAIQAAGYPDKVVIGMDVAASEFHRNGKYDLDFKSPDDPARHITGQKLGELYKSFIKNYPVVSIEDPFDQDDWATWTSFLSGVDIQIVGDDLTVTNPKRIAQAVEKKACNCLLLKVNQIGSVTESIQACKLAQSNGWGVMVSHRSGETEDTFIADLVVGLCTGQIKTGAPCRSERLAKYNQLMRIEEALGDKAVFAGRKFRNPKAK

Regarding `O=C(O)COP(=O)(O)O` [phosphoglycolate], the Ki (usually the dissociation constant of the complex between target and ligand, obtained from inhibition or displacement) is approximately 160 µM.

(Values after article PMC6380167, “Phosphoglycolate has profound metabolic effects but most likely no role in a metabolic DNA response in cancer cell lines” (Biochemical Journal, 2019).)
